Laboratory results from ChEMBL document CHEMBL4359931, “Synthesis, biological evaluation and molecular docking studies of new amides of 4-bromothiocolchicine as anticancer agents” (Bioorg Med Chem, 2019).
Calls of active or inactive are those of the source. No cut-off for these calls is given here.

Columns and labels:
[1] = Cell cycle arrest in human ALL5 cells assessed as accumulation in subG1 phase at 5 times of antiproliferative IC50 incubated for 48 hrs by propidium iodide based flow cytometry (reference value: 11 %); format: functional
[2] = Antiproliferative activity against human ALL5 cells assessed as reduction in cell viability incubated for 120 hrs by MTT assay; format: functional, cell-based; settings: ALL5, 120 h
[3] = tested on: MCF7; assay: Antiproliferative activity against human MCF7 cells assessed as reduction in cell viability incubated for 120 hrs by MTT assay; format: functional, cell-based; settings: MCF7, 120 h
[4] = Cell cycle arrest in human ALL5 cells assessed as accumulation in G1 phase at 5 times of antiproliferative IC50 incubated for 48 hrs by propidium iodide based flow cytometry (reference value: 67.4 %); format: functional
[5] = tested on: MCF7; assay: Cell cycle arrest in human MCF7 cells assessed as accumulation in S phase at 5 times of antiproliferative IC50 incubated for 24 hrs by propidium iodide based flow cytometry (reference value: 19.9 %); format: functional
[6] = tested on: MCF7; assay: Cell cycle arrest in human MCF7 cells assessed as accumulation in S phase at 5 times of antiproliferative IC50 incubated for 48 hrs by propidium iodide based flow cytometry (reference value: 34 %); format: functional
[7] = tested on: MCF7; assay: Cell cycle arrest in human MCF7 cells assessed as accumulation in G2 phase at 5 times of antiproliferative IC50 incubated for 24 hrs by propidium iodide based flow cytometry (reference value: 22.4 %); format: functional
[8] = Cell cycle arrest in human ALL5 cells assessed as accumulation in G1 phase at 5 times of antiproliferative IC50 incubated for 24 hrs by propidium iodide based flow cytometry (reference value: 68.1 %); format: functional
[9] = Selectivity index, ratio of IC50 of mouse BALB/3T3 cells to IC50 of human A549 cells
[10] = tested on: MCF7; assay: Cell cycle arrest in human MCF7 cells assessed as accumulation in G2 phase at 5 times of antiproliferative IC50 incubated for 72 hrs by propidium iodide based flow cytometry (reference value: 18.6 %); format: functional
[11] = tested on: MCF7; assay: Cell cycle arrest in human MCF7 cells assessed as accumulation in G1 phase at 5 times of antiproliferative IC50 incubated for 48 hrs by propidium iodide based flow cytometry (reference value: 40.8 %); format: functional
[12] = Selectivity index, ratio of IC50 of mouse BALB/3T3 cells to IC50 of human MCF7 cells; format: toxicity; settings: BALB/3T3 cells versus MCF7 cells, read-out: Ratio IC50
[13] = Selectivity index, ratio of IC50 of mouse BALB/3T3 cells to IC50 of human ALL5 cells
[14] = tested on: A549; assay: Antiproliferative activity against human A549 cells assessed as reduction in cell viability incubated for 120 hrs by MTT assay; format: functional, cell-based; settings: A549, 120 h
[15] = tested on: MCF7; assay: Cell cycle arrest in human MCF7 cells assessed as accumulation in S phase at 5 times of antiproliferative IC50 incubated for 72 hrs by propidium iodide based flow cytometry (reference value: 19.8 %); format: functional
[16] = Cell cycle arrest in human ALL5 cells assessed as accumulation in G2 phase at 5 times of antiproliferative IC50 incubated for 24 hrs by propidium iodide based flow cytometry (reference value: 10.6 %); format: functional
[17] = Cell cycle arrest in human ALL5 cells assessed as accumulation in G2 phase at 5 times of antiproliferative IC50 incubated for 48 hrs by propidium iodide based flow cytometry (reference value: 11.2 %); format: functional
[18] = Cell cycle arrest in human ALL5 cells assessed as accumulation in G2 phase at 5 times of antiproliferative IC50 incubated for 72 hrs by propidium iodide based flow cytometry (reference value: 11.3 %); format: functional
[19] = tested on: MCF7; assay: Cell cycle arrest in human MCF7 cells assessed as accumulation in G1 phase at 5 times of antiproliferative IC50 incubated for 24 hrs by propidium iodide based flow cytometry (reference value: 49.9 %); format: functional
[20] = tested on: MCF7; assay: Cell cycle arrest in human MCF7 cells assessed as accumulation in G2 phase at 5 times of antiproliferative IC50 incubated for 48 hrs by propidium iodide based flow cytometry (reference value: 16 %); format: functional
[21] = Cell cycle arrest in human ALL5 cells assessed as accumulation in S phase at 5 times of antiproliferative IC50 incubated for 48 hrs by propidium iodide based flow cytometry (reference value: 10.3 %); format: functional
[22] = tested on: MCF7; assay: Cell cycle arrest in human MCF7 cells assessed as accumulation in subG1 phase at 5 times of antiproliferative IC50 incubated for 48 hrs by propidium iodide based flow cytometry (reference value: 9.19 %); format: functional
[23] = Antiproliferative activity against human LoVo/DX cells assessed as reduction in cell viability incubated for 120 hrs by MTT assay; format: functional, cell-based
[24] = Cell cycle arrest in human ALL5 cells assessed as accumulation in S phase at 5 times of antiproliferative IC50 incubated for 72 hrs by propidium iodide based flow cytometry (reference value: 13.5 %); format: functional
[25] = species: Homo sapiens; assay: Induction of cell cycle arrest in human ALL5 cells assessed as increase in 4 N DNA at 5 times of antiproliferative IC50 incubated for 48 hrs by propidium iodide based flow cytometry; format: functional
[26] = Cell cycle arrest in human ALL5 cells assessed as accumulation in S phase at 5 times of antiproliferative IC50 incubated for 24 hrs by propidium iodide based flow cytometry (reference value: […]); format: functional
[27] = species: Homo sapiens; assay: Induction of cell cycle arrest in human ALL5 cells assessed as increase in 4 N DNA at 5 times of antiproliferative IC50 incubated for 24 hrs by propidium iodide based flow cytometry; format: functional
[28] = Selectivity index, ratio of IC50 of mouse BALB/3T3 cells to IC50 of human LoVo/DX cells; format: toxicity; settings: BALB/3T3 cells versus LoVo/DX cells, read-out: Ratio IC50
[29] = Cell cycle arrest in human ALL5 cells assessed as accumulation in G1 phase at 5 times of antiproliferative IC50 incubated for 72 hrs by propidium iodide based flow cytometry (reference value: 59.7 %); format: functional
[30] = tested on: MCF7; assay: Cell cycle arrest in human MCF7 cells assessed as accumulation in G1 phase at 5 times of antiproliferative IC50 incubated for 72 hrs by propidium iodide based flow cytometry (reference value: 58 %); format: functional
[31] = tested on: MCF7; assay: Cell cycle arrest in human MCF7 cells assessed as accumulation in subG1 phase at 5 times of antiproliferative IC50 incubated for 72 hrs by propidium iodide based flow cytometry (reference value: 3.59 %); format: functional
[32] = tested on: LoVo; assay: Antiproliferative activity against human LoVo cells assessed as reduction in cell viability incubated for 120 hrs by MTT assay; format: functional, cell-based
[33] = species: Homo sapiens; assay: Induction of cell death in human ALL5 cells assessed as decrease in 4 N DNA at 5 times of antiproliferative IC50 incubated for 72 hrs by propidium iodide based flow cytometry; format: functional
[34] = Cell cycle arrest in human ALL5 cells assessed as accumulation in subG1 phase at 5 times of antiproliferative IC50 incubated for 72 hrs by propidium iodide based flow cytometry (reference value: 15.5 %); format: functional
[35] = tested on: MCF7; assay: Cell cycle arrest in human MCF7 cells assessed as accumulation in subG1 phase at 5 times of antiproliferative IC50 incubated for 24 hrs by propidium iodide based flow cytometry (reference value: 7.79 %); format: functional
[36] = Resistance index, ratio of IC50 of human LoVo/DX cells to IC50 of human LoVo cells; format: functional
[37] = tested on: BALB/3T3; assay: Antiproliferative activity against mouse BALB/3T3 cells assessed as reduction in cell viability incubated for 120 hrs by MTT assay; format: cell-based; settings: BALB/3T3, 120 h
[38] = Selectivity index, ratio of IC50 of mouse BALB/3T3 cells to IC50 of human LoVo cells; format: toxicity; settings: BALB/3T3 cells versus LoVo cells, read-out: Ratio IC50
[39] = Cell cycle arrest in human ALL5 cells assessed as accumulation in subG1 phase at 5 times of antiproliferative IC50 incubated for 24 hrs by propidium iodide based flow cytometry (reference value: 10.5 %); format: functional

| SMILES | Activity [1] [%] | IC50 [2] [nM] | IC50 [3] [nM] | Activity [4] [%] | Activity [5] [%] | Activity [6] [%] | Activity [7] [%] | Activity [8] [%] | Ratio IC50 [9] | Activity [10] [%] | Activity [11] [%] | selectivity ratio [12] | Ratio IC50 [13] | IC50 [14] [nM] | Activity [15] [%] | Activity [16] [%] | Activity [17] [%] | Activity [18] [%] | Activity [19] [%] | Activity [20] [%] | further results |
| --- | --- | --- | --- | --- | --- | --- | --- | --- | --- | --- | --- | --- | --- | --- | --- | --- | --- | --- | --- | --- | --- |
| CCC(=O)N[C@H]1CCc2c(Br)c(OC)c(OC)c(OC)c2-c2ccc(SC)c(=O)cc21 | 33 | 8.5 | 11.2 | 35 | 7.61 | 8.78 | 74.3 | 52.4 | 1.1 | 53.8 | 15 | 1 | 1.3 | 10.5 | 16.3 | 17.2 | 17.5 | 8.93 | 12 | 63.7 | Activity [21]: 14.5%; Activity [22]: 12.5%; IC50 [23]: 87.2 nM; Activity [24]: 19.5%; Activity [25]: Active; Activity [26]: 12.9%; Activity [27]: Active; selectivity ratio [28]: 0.1; Activity [29]: 25.7%; Activity [30]: 12.2%; Activity [31]: 17.7%; IC50 [32]: 7.2 nM; Activity [33]: Active; Activity [34]: 45.8%; Activity [35]: 6.15%; Ratio IC50 [36]: 12.1; IC50 [37]: 11.2 nM; selectivity ratio [38]: 1.6; Activity [39]: 17.4% |
| COc1c(Br)c2c(c(OC)c1OC)-c1ccc(SC)c(=O)cc1[C@@H](NC(=O)C(C)C)CC2 | 31.9 | 8.6 | 11.5 | 32.1 | 5.16 | 10.6 | 78 | 52.5 | 2 | 57.5 | 11.4 | 1.8 | 2.4 | 10.2 | 15.4 | 15.8 | 20 | 7.59 | 12 | 66.3 | Activity [21]: 15.9%; Activity [22]: 11.8%; IC50 [23]: 75.9 nM; Activity [24]: 22.5%; Activity [25]: Active; Activity [26]: 13.7%; Activity [27]: Active; selectivity ratio [28]: 0.3; Activity [29]: 23%; Activity [30]: 9.6%; Activity [31]: 17.5%; IC50 [32]: 7 nM; Activity [33]: Active; Activity [34]: 46.9%; Activity [35]: 4.89%; Ratio IC50 [36]: 10.8; IC50 [37]: 20.4 nM; selectivity ratio [38]: 2.9; Activity [39]: 18% |
| COc1c(Br)c2c(c(OC)c1OC)-c1ccc(OC)c(=O)cc1[C@@H](NC(C)=O)CC2 | 26.4 | 5.9 | 26.6 | 35 | 7.97 | 14.6 | 74.9 | 51.2 | 1.4 | 56.1 | 12.5 | 5.3 | 24.1 | 104 | 14.3 | 16.9 | 18.6 | 11.2 | 9.79 | 60.8 | Activity [21]: 20%; Activity [22]: 12.1%; IC50 [23]: 1550 nM; Activity [24]: 22.2%; Activity [25]: Active; Activity [26]: 14.8%; selectivity ratio [28]: 0.1; Activity [29]: 26.9%; Activity [30]: 13.2%; Activity [31]: 16.4%; IC50 [32]: 83.6 nM; Activity [33]: Active; Activity [34]: 39.7%; Activity [35]: 7.37%; Ratio IC50 [36]: 18.7; IC50 [37]: 142 nM; selectivity ratio [38]: 1.7; Activity [39]: 17.1% |
